Measured values from patent US20240116971A1, “NMN AND DERIVATIVES FOR ITS USE IN THE TREATMENT OF DEPRESSION AND/OR ANXIETY IN PATIENTS HAVING A FORM OF PARKINSONISM” (Nuvamid SA, priority 2021, published 2024).

Tested on: MSA patients
Experiment: Efficacy on the UMSARS scale
Format: in vivo, human
Settings: for UMSARS activities of daily living sub-score, change: score 0 to 48, lower is better, p-value >0.05
Procedure: For each eligible patient: during the first visit, the investigator carries out a specific complementary clinical examination MSA (validated specific scale: UMSARS) in order to score the basal level of the patient at inclusion on 4 axes: activities of daily living (12 items), motor level (14 items), orthostatic hypotension [4 measures: BP standing/sleeping (2 min); CF standing/sleeping (2 min) and orthostatic symptoms [Y/N] and finally, decide on their level of disability (1 item). During this visit, they are given pillbox No 1. They are told to start the product under study the next morning, on D1. In fact, the first intake of the dietary supplement can be taken the next morning with breakfast (2 capsules). Pill box No 1 must be returned at visit V2 (D15) to check compliance. A first daily follow-up notebook (follow-up notebook no 1) is given to the patient to record the intake of the food supplement, the concomitant treatments (if applicable) and any undesirable events that may have occurred. Follow-up notebook no 1 should be returned to the investigator at the V2 follow-up visit. The nurse goes to the patient's home 2 days before each follow-up visit in order to carry out the blood test (safety biology), take the hemodynamic constants standing/lying down (after a 2 minute rest): SAP/DAP and HR which is filled in the patient's follow-up notebook. The nurse checks the patient's compliance with the pillbox and the follow-up booklet. The nurse also reminds the patient not to forget to bring back the pill dispenser and the follow-up booklet at each visit. The investigator also takes the hemodynamic constants of the patient standing and lying down (after 2 minutes rest): SAP/DAP and HR. During this consultation, the patient/carer is also asked to answer a specific quality of life questionnaire (MSA-QoL questionnaire). If the patient meets all the eligibility criteria (apart from biology), the neurologist gives them a medical prescription to carry out a biological assessment. This biological assessment must be carried out within 3 days depending on the patient's availability. To do this, a nurse visits the patient at his/her home to collect the biological samples and to send it to the Medical Analysis Laboratories, the local reference laboratory for this research.
During the third visit at D45 and fourth visit at D90, the investigator also carries out a specific complementary clinical examination MSA (validated specific scale: UMSARS) in order to score the patient's level after 3 months of NMN supplementation on 4 axes: activities of daily living (12 items), motor level (14 items), orthostatic hypotension [4 measures: BP standing/sleeping (2 min); HR standing/sleeping (2 min) and orthostatic symptoms Y/N] and finally decide on their level of disability (1 item).

NC(=O)c1ccc[n+]([C@@H]2O[C@H](COP(=O)([O-])O)[C@@H](O)[C@H]2O)c1 [beta-NMN, nicotinamide mononucleotide]
UMSARS Motor Examination Scale: improved items (NMN 400 mg/day, 3 months): facial expression and tremor at rest
UMSARS activities of daily living: improved items (NMN 400 mg/day, 3 months): speech, writing, eating and handling cutlery, dressing, risk of falling and orthostatic symptoms
UMSARS disability scale score (PP population, 3.5±1.0 points at VO, scale 1 to 5): maintained at V3 and V4
Orthostatic hypotension (OH) (V3 and V4, OH had been detected in these patients at previous visits, other patients unchanged): two patients showed no signs of OH at V3 and V4
functional situation of the patients (at 1.5 months and 3 months, mITT and PP populations): slight improvement
UMSARS motor examination, overall (at 3 months, mITT and PP): did not show any improvement in the motor examination but did not show any deterioration
UMSARS activities of daily living sub-score, change (mITT population, V3 vs VO (16.3±6.8 points)): −0.3 point
UMSARS Motor Examination Scale sub-score, change (mITT population, V3 vs VO (18.5±11.3 points), score 0 to 56, lower is better): −0.6 points
UMSARS Motor Examination Scale sub-score (mITT population, V4, VO 18.5±11.3 points): rises again at V4 to reach the score observed at VO
UMSARS activities of daily living sub-score, change (mITT population, V4 vs VO (16.3±6.8 points)): −1.0 point
UMSARS disability scale score (mITT population, 2.9±1.4 points at VO, scale 1 to 5, lower is more independent): perfectly maintained at V3 and V4
